In patent US20190201489A1, “COMPOSITIONS AND METHODS FOR PREVENTING BONE LOSS AND/OR STIMULATING BONE HEALING” (NORTHEAST OHIO MEDICAL UNIVERSITY, priority 2016, published 2019):

Key:
[1] = test system: ZCCHC6; test: ZCCHC6 expression in IL-1β-stimulated chondrocytes; assay type: cell-based; details: human chondrocytes stimulated with IL-1β, n=4
Procedure: (§1) Chondrocytes were derived by enzymatic digestion of human cartilage obtained from OA patients (n=14) undergoing knee joint replacement. Chondrocytes were stimulated with IL-1β (5 ng/ml) or treated with Actinomycin D (5 μg/ml) or NFκB inhibitor SC514 (75 μM) or JNK inhibitor (25 μM). Total RNA from grounded cartilage and from chondrocytes was purified using Qiagen RNeasy kit (Qiagen). Reverse transcription was performed using the Quantitect Reverse Transcription kit and the ZCCHC6 or IL-6 mRNA was quantified using TaqMan assays. SiRNA-mediated depletion of ZCCHC6 in human chondrocytes was used to study the effect on inflammatory cytokine expression using a cytokine array (Ray Biotech). Protein expression of IL-6 was studied using Western immunoblotting and quantified by ELISA in culture supernatants. Results were derived using Sigma Plot 12.3 package and p<0.05 was considered significant.

[2] = test system: IL-6 mRNA; test: IL-6 mRNA expression in chondrocytes by TaqMan assay; assay type: cell-based; details: human chondrocytes stimulated with IL-1β, n=4
Procedure: as §1

## Interleukin-1β [IL-1β]
[1]
  increase in expression of ZCCHC6: 11.3 fold
[2]
  increase in mRNA of IL-6: 4956 fold
